The record followed here is article PMC12727973, “Off-target autophagy disruption associated with a novel liver toxicity in dogs for a highly basic heterobifunctional protein degrader” (Frontiers in Pharmacology, 2025).

Data set [1] relates to primary human cholangiocytes. Description: Co-treatment with V-ATPase inhibitor bafilomycin in cholangiocytes.
Data set [2] has as its system LC3B. Description: LC3B lipidation immunoblot in primary cholangiocytes. The class given is cell-based, human. The conditions noted are these: 3 h, 300 μM. A general note: Immunoblotting shows a protein as a band on a membrane.
Procedure: Cells were treated with compounds at concentrations indicated for 3 h (immunoblotting), 18 h (proteomics), or 48 h (compound uptake) using DMSO vehicle content normalized across wells, up to 0.2%. 48 h was selected for compound uptake experiments to match the cell viability assay conditions; 18 h was selected for the initial assessment of proteome-wide changes leading to and accompanying cytotoxicity; 3 h to observe pathway changes with minimal confounding effects of cytotoxicity. […] Following compound incubation, cells were washed twice with phosphate buffer saline (PBS) and, except for compound uptake studies, lifted off plates with Accumax (Sigma-Aldrich A7089). Cells were pelleted at 700 × g for 5 min, washed with PBS, and pellets were stored at −80 °C for later sample preparation.
Lysate corresponding to 20 µg protein was combined with LDS Buffer (1X final, Thermo #NP0007) and 1 M dithiothreitol stock (100 mM final), heat denatured at 95 °C for 10 min, and loaded into the wells of a NuPage Bis-Tris Mini Protein Gel (Thermo #NP0321). Proteins were separated at 200 V for 30–40 min using a XCell SureLock Mini-Cell (Thermo #EI0001) and MES SDS Running Buffer (Thermo #NP0002).
Proteins were next transferred to a PVDF membrane (Thermo #IB24002) with an iBlot 2 Gel Transfer Device (Invitrogen #IB21001) using the standard 7 min method. […]

`CO/C1=C\C(C)=C\[C@@H](C)[C@@H](O)[C@@H](C)C/C(C)=C/C=C/[C@H](OC)[C@@H]([C@@H](C)[C@@H](O)[C@H](C)[C@@]2(O)C[C@@H](O)[C@H](C)[C@@H](C(C)C)O2)OC1=O` [BafA1, Bafilomycin A1]: the Cytotoxicity alone result in data set [1] (BafA1 alone, longer timepoints) is listed as “cytotoxic at longer timepoints”. Further, the “Effect on Compound X-induced cytotoxicity” value in data set [1] (co-treatment with Compound X, <24 h) is listed as “fully rescued compound-induced cytotoxicity”. Also, the “Effect on LC3B lipidation by Compound X” value in data set [1] (co-treatment, 100 nM or 2.5 nM BafA1, 3 h) is listed as “reduced the LC3B lipidation by Compound X”.
In the case of `CCN(CC)CCCC(C)Nc1ccnc2cc(Cl)ccc12` (stereo not shown) [CQ, chloroquine diphosphate], the LC3B-II/LC3B-I in data set [2] came to 2.1.
